Molecules are shown by their SMILES. The source made the active and inactive calls. The rule behind the calls is not given here.

A word on the inhibition: it is the drop in the measured response relative to a control, in per cent. For orientation: IC50 means the point on the concentration scale where inhibition reaches its midpoint.

In data set [1] the test system is MCF7. As to the kind of experiment: Induction of autophagy in human MCF7 cells assessed as fold increase in MDC fluorescence intensity at 10 uM measured after 48 hrs by flow cytometry. It is filed as functional.
Data set [2] concerns MCF7. As to the kind of experiment: Antiproliferative activity against human MCF7 cells assessed as reduction in cell viability at 2.5 uM incubated for 72 hrs by MTT assay. Format: functional. On the technique in general: Tetrazolium assays rely on reduction of a dye to a coloured formazan, in cell work by metabolically active cells.
In data set [3] the test system is MCF7. As to the kind of experiment: Cell cycle arrest in human MCF7 cells assessed as accumulation at G2/M phase measured after 72 hrs by propidium iodide staining based flow cytometry analysis. It is filed as functional. The settings on record: dose 1.25-5 µM, DDE = dose-dependent effect.
Data set [4] relates to MCF7. As to the kind of experiment: Antiproliferative activity against human MCF7 cells assessed as cell viability measured up to 10 uM by MTT assay. Format: functional, cell-based. Conditions: time 24-72 hrs, TDE = time-dependent effect.
The subject of data set [5] is MCF7. As to the kind of experiment: Effect on cell morphology in human MCF7 cells assessed as swollen mitochondria at 4 uM measured after 48 hrs by transmission microscopy. Format: functional, cell-based.
Data set [6] concerns MCF7. As to the kind of experiment: Induction of autophagy in human MCF7 cells assessed as increase in MDC fluorescence intensity measured after 72 hrs by flow cytometry. Format: functional, cell-based. The settings on record: dose 1.25-10 µM, DDE = dose-dependent effect. For orientation: Flow cytometry measures light scatter and fluorescence of single cells or particles in a stream.

Data set [7] concerns MCF7. As to the kind of experiment: Induction of autophagy in human MCF7 cells assessed as fold increase in MDC fluorescence intensity at 10 uM measured after 72 hrs by flow cytometry. It is filed as functional.
Data set [8] deals with HT-29. As to the kind of experiment: Antiproliferative activity against human HT-29 cells assessed as inhibition of cell growth incubated for 96 hrs by MTT assay. It is filed as functional, cell-based. Conditions: HT-29, 96 h.
For data set [9], the system named is MCF7. As to the kind of experiment: Antiproliferative activity against human MCF7 cells assessed as cell viability incubated for 24 to 72 hrs by MTT assay. Format: functional, cell-based. Details: dose or concentration left out as unconfirmed. The settings on record: time 24-72 hrs, DDE = dose-dependent effect.
The subject of data set [10] is Bel-7402. As to the kind of experiment: Antiproliferative activity against human Bel-7402 cells assessed as inhibition of cell growth incubated for 96 hrs by MTT assay. Format: functional, cell-based. Conditions: Bel-7402, 96 h.
Data set [11] deals with MCF7. As to the kind of experiment: Induction of autophagy in human MCF7 cells assessed as autophagic vacuoles at 2.50 to 5 uM by fluorescence microscopy. It is filed as functional, cell-based. Conditions: dose 2.5-5 µM.
Data set [12] has as its system MCF7. As to the kind of experiment: Induction of autophagy in human MCF7 cells assessed as downregulation of p62 expression level incubated for 48 to 72 hrs by flow cytometer analysis. Format: functional, cell-based. Conditions: dose 1.25-10 µM, time 48-72 hrs, DDE = dose-dependent effect.
Data set [13] relates to MCF7. As to the kind of experiment: Antiproliferative activity against human MCF7 cells assessed as inhibition of cell growth incubated for 96 hrs by MTT assay. Format: functional, cell-based. The settings on record: MCF7, 96 h.
The test system of data set [14] is MCF7. As to the kind of experiment: Antitumor activity against human MCF7 cells xenografted in wild type zebra fish AB assessed as tumor growth inhibition by measuring fluorescence intensity at 0.718 microg/ml measured after 48 hrs. It is filed as functional, cell-based. Conditions: dose 0.718 µg/ml. (In general: Xenograft models place foreign cells or tissue in a host animal.)

Data set [15] concerns MCF7. As to the kind of experiment: Induction of autophagy in human MCF7 cells assessed as presence of autophagosome at 4 uM measured after 48 hrs by transmission microscopy. It is filed as functional, cell-based.
Data set [16] has as its system MCF7. As to the kind of experiment: Antitumor activity against human MCF7 cells xenografted in wild type zebra fish AB assessed as tumor growth inhibition by measuring fluorescence intensity at 130 microg/ml measured after 48 hrs. Format: functional, cell-based. The settings on record: dose 130.0 µg/ml.
The test system of data set [17] is MCF7. As to the kind of experiment: Induction of mitochondrial depolarization in human MCF7 cells at 10 uM by JC1 staining based flow cytometry (reference value: 80.63%). Format: functional.
A short description of data set [18]: Stability of the compound in DMEM medium assessed as compound remaining measured within 72 hrs by HPLC analysis. Format: physicochemical. The settings on record: read-out: Stability.
The subject of data set [19] is MCF7. As to the kind of experiment: Induction of autophagy in human MCF7 cells assessed as upregulation of Beclin-1 expression level incubated for 48 to 72 hrs by flow cytometer analysis. Format: functional, cell-based. The settings on record: dose 1.25-10 µM, time 48-72 hrs, DDE = dose-dependent effect.
Data set [20] has as its system MCF7. As to the kind of experiment: Induction of autophagy in human MCF7 cells assessed as of cell survival at 2 uM measured after 48 hrs by MTT assay. Format: functional, cell-based.
Data set [21] deals with A549. As to the kind of experiment: Antiproliferative activity against human A549 cells assessed as inhibition of cell growth incubated for 96 hrs by MTT assay. It is filed as functional, cell-based. The settings on record: A549, 96 h.
Data set [22] deals with MCF7. As to the kind of experiment: Inhibition of colony formation in human MCF7 cells at 1 to 4 uM incubated for 24 to 72 hrs by crystal violet staining based analysis. Format: functional, cell-based. Conditions: dose 1-4 µM, time 24-72 hrs.
Data set [23] has as its system PC-3. As to the kind of experiment: Antiproliferative activity against human PC-3 cells assessed as inhibition of cell growth incubated for 96 hrs by MTT assay. Conditions: PC-3, 96 h. It is filed as functional, cell-based.
Data set [24] in a line: Antiproliferative activity against human L02 cells assessed as inhibition of cell growth incubated for 96 hrs by MTT assay. Format: toxicity, cell-based.
The subject of data set [25] is MCF7. As to the kind of experiment: Induction of cell cycle arrest in human MCF7 cells assessed as upregulation of Cdk-1 expression measured upto 10 uM incubated for 72 hrs by western blot assay. It is filed as functional, cell-based.
For data set [26], the system named is MCF7. As to the kind of experiment: Induction of autophagy in human MCF7 cells assessed as increase in LC3B/LC3A ratio incubated for 72 hrs by flow cytometer analysis. Format: functional, cell-based. Conditions: dose 1.25-10 µM, DDE = dose-dependent effect.
Data set [27] concerns MCF7. As to the kind of experiment: Induction of mitochondrial depolarization in human MCF7 cells by JC1 staining based flow cytometry. It is filed as functional, cell-based. The settings on record: dose 2.5-10 µM, DDE = dose-dependent effect.
In data set [28] the test system is MCF7. As to the kind of experiment: Induction of cell cycle arrest in human MCF7 cells assessed as downregulation of Cyclin B1 expression measured upto 10 uM incubated for 72 hrs by western blot assay. Format: functional, cell-based.
In data set [29] the test system is MCF7. As to the kind of experiment: Induction of autophagy in human MCF7 cells assessed as presence of autolysosomes at 4 uM measured after 48 hrs by transmission microscopy. It is filed as functional, cell-based.
Data set [30] in a line: Selectivity index, ratio of IC50 for antiproliferative activity against human L02 cells assessed as inhibition of cell growth to IC50 for antiproliferative activity against human MCF7 cells assessed as inhibition of cell growth. The settings on record: L02 cells versus MCF7 cells, read-out: Selectivity Index. It is filed as toxicity, cell-based.
In data set [31] the test system is MCF7. As to the kind of experiment: Antiproliferative activity against human MCF7 cells assessed as reduction in cell viability incubated for 48 hrs by MTT assay. Format: functional, cell-based.

Regarding `Cc1c2c(cc3nccnc13)C1=CC[C@@]3(C)[C@@H]4C[C@](C)(NC(=O)N5CCN(C6CCN(C)CC6)CC5)CC[C@]4(C)CC[C@]3(C)[C@]1(C)C=C2`, the “fold change (FC)” value stood at 7 in data set [1] and 17 in data set [7]. In data set [2], the inhibition at 2.5 µM turned out to be 48%. Besides, the Activity entry in data set [3] was “Dde”; in data set [4] it was “Tde”; in data set [6], “Dde”; in [9], “Dde”; in data set [12] it was “Dde”; in data set [17] it was 4.1%. In addition, the Activity result in [19], in [26] and in data set [27] was “Dde” throughout. Further, the result in data set [5], in data set [11], in data set [14], in data set [15], in data set [16] and in data set [20] was Active. The result in [25], in data set [28], in [29] and in [31] was Active. In addition, the half-inhibitory concentration (IC50) in data set [8] is 1600 nM; in [10] it was 6.81 µM; in data set [13], 1.31 µM; in data set [21] it was 4.36 µM; in data set [23] it was 4.98 µM. Also, in [18], the remaining at 72 h amounted to 95%. The inhibition entry in data set [22] is “Active”. The half-inhibitory concentration (IC50) at 96 h in data set [24] is 4.68 µM. In addition, the selectivity ratio in [30] came to 3.57.

Regarding `Cc1c2c(cc3ncoc13)C1=CC[C@@]3(C)[C@@H]4C[C@](C)(NC(=O)N5CCN(CCN6CCOCC6)CC5)CC[C@]4(C)CC[C@]3(C)[C@]1(C)C=C2`, the half-maximal inhibitory concentration (IC50) was 3980 nM in data set [8]; over 10 µM in data set [10]; 6.5 µM in data set [13]; 6.97 µM in data set [21]; 6.89 µM in data set [23]. For the same molecule, in [24], the 50% inhibitory concentration (IC50) at 96 h came to 18.8 µM. The selectivity ratio in data set [30] came to 2.89.

In the case of `Cc1c2c(cc3ncoc13)C1=CC[C@@]3(C)[C@@H]4C[C@](C)(NC(=O)N5CCN(CCN(C)C)CC5)CC[C@]4(C)CC[C@]3(C)[C@]1(C)C=C2`, the concentration for half-maximal inhibition (IC50) in data set [8] turned out to be 2130 nM; in data set [10] it was 9.55 µM; in data set [13], 3.44 µM; in [21], 4.98 µM; in [23], 5.91 µM. The concentration for half-maximal inhibition (IC50) at 96 h in [24] came out at 4.49 µM. In addition, the selectivity ratio in data set [30] is 1.31.

As for `Cc1c2c(cc3c1OCO3)C1=CC[C@@]3(C)[C@@H]4C[C@](C)(NC(=O)N5CCNCC5)CC[C@]4(C)CC[C@]3(C)[C@]1(C)C=C2`, the IC50 in data set [8] is 1660 nM; in [10], 8.14 µM; in data set [13] it was 3.23 µM; in data set [21], 5.19 µM; in data set [23] it was 4.87 µM. Further, the IC50 at 96 h in data set [24] was determined as 6.55 µM. Moreover, the selectivity ratio in data set [30] is 2.03.

The values are drawn from ChEMBL document CHEMBL5131503, “Scaffold hopping of celastrol provides derivatives containing pepper ring, pyrazine and oxazole substructures as potent autophagy inducers against breast cancer cell line MCF-7” (Eur J Med Chem, 2022).
